Laboratory results from publication PMC3164656, “Burkholderia cenocepacia BC2L-C Is a Super Lectin with Dual Specificity and Proinflammatory Activity” (PLoS Pathogens, 2011).
Several values for one entry are separate records, joined by “and”; a condition that tells them apart may be missing. Identical values can stand only once.

Assays:
BC2L-C-ct [1] = target: T1, BC2L-C-ct (Burkholderia cenocepacia, UniProt B4EH86); assay: Isothermal titration microcalorimetry, binding of saccharides to BC2L-C-ct; settings: ITC, 25°C; for Kd / n (stoichiometry): 20 mM Tris pH 7.5
T1 sequence (B4EH86 158-272): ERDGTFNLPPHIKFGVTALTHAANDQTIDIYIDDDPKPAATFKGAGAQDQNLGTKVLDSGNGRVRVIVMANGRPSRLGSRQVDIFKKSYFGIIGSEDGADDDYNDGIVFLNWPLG

BC2L-C [2] = target: T2, BC2L-C (Burkholderia cenocepacia, UniProt B4EH86); assay: SPR on monosaccharide-activated surfaces, whole lectin; assay type: binding; settings: CM5 chip, Biot-PAA-monosaccharide, 25°C
T2 sequence (B4EH86 1-272): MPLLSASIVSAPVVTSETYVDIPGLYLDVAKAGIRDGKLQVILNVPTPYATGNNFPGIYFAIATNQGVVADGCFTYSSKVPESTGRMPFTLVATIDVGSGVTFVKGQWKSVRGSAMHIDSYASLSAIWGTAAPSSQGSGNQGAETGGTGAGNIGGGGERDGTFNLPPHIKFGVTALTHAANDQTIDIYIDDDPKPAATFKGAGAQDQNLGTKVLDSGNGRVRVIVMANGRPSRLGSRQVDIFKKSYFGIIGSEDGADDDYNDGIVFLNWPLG

BC2L-C-ct [3] = target: T1, BC2L-C-ct; assay: SPR on monosaccharide-activated surfaces, C-terminal domain; assay type: binding; settings: CM5 chip, Biot-PAA-monosaccharide, 25°C
BC2L-C [4] = target: T2, BC2L-C; assay: Isothermal titration microcalorimetry, binding of saccharides to whole BC2L-C; settings: ITC, 25°C; for Kd / n (stoichiometry): 20 mM Tris pH 7.5
BC2L-C-ct [5] = target: T1, BC2L-C-ct; assay: Glycan array (Consortium for Functional Glycomics), C-terminal domain; assay type: binding; settings: Alexa-labelled lectin 200 µg/mL, array version 3.2
Source text: Purified BC2L-C lectin samples were labeled with Alexa Fluor 488-TFP (Invitrogen, CA) according to manufacturer's instructions and re-purified on a D-Salt polyacrylamide desalting column (Pierce, Rockford IL). Alexa-labeled proteins were used for glycan-array screening with standard procedure of the Core H of the Consortium for Functional Glycomics (Emory University, Atlanta, GA, http://www.functionalglycomics.org). The screening of the printed glycan microarray chip (version 3.2, with 377 glycans from a library of natural and synthetic glycans) was performed with a concentration of BC2L-C of 200 µg/mL dissolved in 20 mM HEPES, 140 mM NaCl, 5 mM CaCl2, pH 7.5 for all samples.

| Compound | -TΔS (BC2L-C-ct [1]) [kcal/mol] | -ΔH (BC2L-C-ct [1]) [kcal/mol] | Kd (BC2L-C-ct [1]) | n (stoichiometry) (BC2L-C-ct [1]) | recognition on glycan array (BC2L-C-ct [5]) | also measured |
| --- | --- | --- | --- | --- | --- | --- |
| CO[C@H]1O[C@H]([C@@H](O)CO)[C@@H](O)[C@H](O)[C@@H]1O [αMeHept, Methyl L-glycero-α-D-manno-heptopyranoside] | 4.9 | 10.1 | 150 µM | 0.56 |  |  |
| C[C@H](O)[C@@H](O)[C@@H](O)[C@H](O)C=O [fucose] |  |  |  |  |  | binding of the lectin to sugar-modified surface (SPR) (BC2L-C [2]): interacts strongly |
| OC[C@H]1OC(O)[C@@H](O)[C@@H](O)[C@@H]1O (stereo partly drawn) [D-Man, D-mannose] | 7.6 | 13.6 | 37.4 µM | 0.50 | shortest fragment recognized, albeit not efficiently | binding of the C-terminal domain to sugar-modified surface (SPR) (BC2L-C-ct [3]): binds only to mannose-coated chips; binding of the lectin to sugar-modified surface (SPR) (BC2L-C [2]): interacts strongly; -TΔS (BC2L-C [4]): 8.25 kcal/mol; Kd (BC2L-C [4]): 21.8 µM; n (stoichiometry) (BC2L-C [4]): 0.57; n (stoichiometry) (BC2L-C-ct [1]; listed as Man): ~0.5 |
| CC(=O)N[C@H]1C(O)O[C@H](CO)[C@@H](O[C@@H]2O[C@H](CO)[C@H](O)[C@H](O)[C@H]2O[C@@H]2O[C@@H](C)[C@@H](O)[C@@H](O)[C@@H]2O)[C@@H]1O[C@@H]1O[C@@H](C)[C@@H](O)[C@@H](O)[C@@H]1O (stereo partly drawn) [Lewis Y] |  |  |  |  |  | -TΔS (BC2L-C [4]): 3.87 kcal/mol; -ΔH (BC2L-C [4]): 9.78 kcal/mol; Kd (BC2L-C [4]): 47.5 µM; n (stoichiometry) (BC2L-C [4]): 1 and 1.01 |
| Manα1–6Man |  |  |  |  | recognised |  |
| O=C[C@H](O)[C@@H](O)[C@@H](O)[C@H](O)CO [galactose] |  |  |  |  |  | binding of the lectin to sugar-modified surface (SPR) (BC2L-C [2]): not by galactose |
| C=CCO[C@H]1O[C@H]([C@@H](O)CO)[C@@H](O)[C@H](O[C@H]2O[C@H]([C@@H](O)CO)[C@@H](O)[C@H](O)[C@@H]2O)[C@@H]1O [Diheptose, allyl L-glycero-α-D-manno-heptopyranosyl-(1→3)-L-glycero-α-D-manno-heptopyranoside] | 3.82 |  | 88 µM and 88.1 µM | 0.48 |  |  |
| Manα1–3Man |  |  |  |  | recognised |  |
| COC1O[C@H](CO)[C@@H](O)[C@H](O)[C@@H]1O (stereo partly drawn) [αMeMan, α-methyl-mannoside] | 6.93 | 13.1 | 27.6 µM | 0.52 |  | -TΔS (BC2L-C [4]): 11.1 kcal/mol; -ΔH (BC2L-C [4]): 17.6 kcal/mol; Kd (BC2L-C [4]): 18.3 µM; n (stoichiometry) (BC2L-C [4]): 0.49 |
| OC[C@H]1O[C@H](OC[C@H]2OC(O)[C@@H](O)[C@@H](O[C@H]3O[C@H](CO)[C@@H](O)[C@H](O)[C@@H]3O)[C@@H]2O)[C@@H](O)[C@@H](O)[C@@H]1O (stereo partly drawn) [Trimannose, Manα1-3(Manα1-6)Man] | 23.3 | 29.45 | 28.8 µM | 0.22 |  |  |
| Manα1–2Man |  |  |  |  | recognised |  |
